Assay [1] has as its target T1, TBK1 (Homo sapiens, UniProt Q9UHD2).
T1 construct: All protein kinases were of human origin and encoded full length proteins, unless indicated otherwise; His6; made in house; host or cells: insect Sf21 cells
T1 sequence (Q9UHD2 1-729): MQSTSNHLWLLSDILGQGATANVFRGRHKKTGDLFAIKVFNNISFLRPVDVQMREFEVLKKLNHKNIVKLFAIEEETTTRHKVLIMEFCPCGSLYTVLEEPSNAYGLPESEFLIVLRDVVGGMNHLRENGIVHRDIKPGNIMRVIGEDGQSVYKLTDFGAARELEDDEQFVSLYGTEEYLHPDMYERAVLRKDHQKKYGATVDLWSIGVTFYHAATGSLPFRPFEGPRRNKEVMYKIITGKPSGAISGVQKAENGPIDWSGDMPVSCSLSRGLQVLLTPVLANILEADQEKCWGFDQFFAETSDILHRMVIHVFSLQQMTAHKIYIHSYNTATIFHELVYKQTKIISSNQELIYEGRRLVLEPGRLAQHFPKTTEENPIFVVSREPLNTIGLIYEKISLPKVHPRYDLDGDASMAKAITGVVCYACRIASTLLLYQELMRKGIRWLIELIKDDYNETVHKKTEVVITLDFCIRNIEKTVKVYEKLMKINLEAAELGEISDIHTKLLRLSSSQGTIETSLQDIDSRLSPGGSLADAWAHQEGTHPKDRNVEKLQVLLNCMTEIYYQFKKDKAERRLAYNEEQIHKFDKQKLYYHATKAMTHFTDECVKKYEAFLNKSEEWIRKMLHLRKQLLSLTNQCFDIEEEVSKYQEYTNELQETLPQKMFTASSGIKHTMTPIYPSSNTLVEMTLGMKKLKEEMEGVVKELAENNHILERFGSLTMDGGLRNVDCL
As to the kind of experiment: TBK1 protein kinase assay ([γ-33P]ATP, P81 filterplates). The class given is biochemical. The procedure, abridged: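 Human TBK1 assayed for 30 min with peptide substrate (300 μM), 50 μM [γ-33P]ATP and 10 mM magnesium acetate in 50 mM Tris/HCl pH 7.5, 0.1 mM EGTA, 0.1% 2-mercaptoethanol. Stopped with orthophosphoric acid and counted on P81 filters. IC50 from 10 compound concentrations.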

Assay [2] addresses T2, VEG-FR (Homo sapiens, UniProt P17948).
T2 construct: All protein kinases were of human origin and encoded full length proteins, unless indicated otherwise; made in house
T2 sequence (P17948 784-1338 limits assumed): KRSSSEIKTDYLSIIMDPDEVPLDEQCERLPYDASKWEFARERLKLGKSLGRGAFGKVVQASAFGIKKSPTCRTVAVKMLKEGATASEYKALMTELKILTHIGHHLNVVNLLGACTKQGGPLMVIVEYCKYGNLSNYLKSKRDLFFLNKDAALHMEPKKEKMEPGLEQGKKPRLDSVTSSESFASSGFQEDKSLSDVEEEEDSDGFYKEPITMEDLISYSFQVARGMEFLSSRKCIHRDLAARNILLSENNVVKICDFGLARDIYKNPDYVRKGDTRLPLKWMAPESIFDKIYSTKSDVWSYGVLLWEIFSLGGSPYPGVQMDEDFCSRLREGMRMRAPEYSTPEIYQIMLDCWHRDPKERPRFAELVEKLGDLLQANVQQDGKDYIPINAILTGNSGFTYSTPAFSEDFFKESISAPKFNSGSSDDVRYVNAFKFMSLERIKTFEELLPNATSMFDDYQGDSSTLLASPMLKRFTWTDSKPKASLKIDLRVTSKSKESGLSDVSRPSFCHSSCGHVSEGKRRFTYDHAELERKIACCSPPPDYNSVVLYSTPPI
Nature of the assay: VEG-FR protein kinase assay. The class given is biochemical. Particulars: for remaining activity at 10 µM: 10 μM compound; for residual kinase activity VEG-FR: 1 μm compound; for remaining activity at 1 µM: 1 μM compound. From the text:
(§1) All protein kinases were of human origin and encoded full length proteins, unless indicated otherwise. They were either expressed as glutathione S-transferase (GST) fusion proteins in Escherichia Coli or as hexahistidine (His6)-tagged proteins in insect Sf21 cells. GST fusion proteins were purified by affinity chromatography on glutathione-Sepharose, and His6-tagged proteins on nickel/nitriloacetate-agarose. The procedures for expressing some of the protein kinases used herein have been detailed previously.^8,9 The following sections outline the DNA vectors synthesised and the procedures used to express and purifying protein kinases that have not been reported previously.
(§2) All assays (25.5 μl) were carried out at room temperature (21° C.) and were linear with respect to time and enzyme concentration under the conditions used. Assays were performed for 30 min using Multidrop Micro reagent dispensers (Thermo Electron Corporation, Waltham, Mass. 02454, USA) in a 96-well format. The concentration of magnesium acetate in the assays was 10 mM and the [γ-33P] ATP (800 cpm/pmol) was used at 5, 20 or 50 μM as indicated, in order to be at or below the Km for ATP for each enzyme. Protein kinases assayed at 5 μM ATP were: —ERK1, ERK8, PKBα, MARK3, Aurora C. Protein kinases assayed at 20 μM ATP were: —JNK1, PDK1, CHK1, CHK2, CDK2 and Aurora B. Protein kinases assayed at 50 μM ATP were: —MNK2, IKKepsilon and TBK1.
(§3) The assays were initiated with MgATP, stopped by addition of 5 μl of 0.5 M orthophosphoric acid and spotted on to P81 filterplates using a unifilter harvester (PerkinElmer, Boston, Mass. 02118, USA). The IC50 values of inhibitors were determined after carrying out assays at 10 different concentrations of each compound.
(§4) Unless stated otherwise, enzymes were diluted in 50 mM Tris/HCl pH 7.5, 0.1 mM EGTA, 1 mg/ml BSA, 0.1% (v/v) 2-mercaptoethanol and assayed in 50 mM Tris/HCl pH 7.5, 0.1 mM EGTA, 0.1% (v/v) 2-mercaptoethanol.

Assay [3] deals with IRR. As to the kind of experiment: IRR protein kinase assay. Format: biochemical, human. To be noted: for residual kinase activity: IRR.
Excerpt: as §1, §2, §3, §4

Where [4] appears, read: read-out: residual kinase activity VEG-FR.
[5] abbreviates: 50 μM ATP, read-out: Potency (TBK1 IC50 potency score).
Setting [6] is: Table 2, 50 μM ATP, read-out: TBK1 IC50.
Setting [7] is: VEG-FR, read-out: residual kinase activity.

pIC50: −log10 of the molar value. Where a name gives a salt, the structure may show the parent alone. Read-outs that look alike come from different tables or passages of the source. A value given as a limit tells only on which side of the number the result lay.

The pIC50 is −log10 of the IC50, conventionally taken in molar units. On to `O=C(NCCCNc1nc(Nc2cccc(F)c2)ncc1Br)C1CCC1` [Compound A, cyclobutanecarboxylic acid {3-[5-bromo-2-(3-fluoro-phenylamino)-pyrimidin-4-ylamino]-propyl}-amide, reference compound], for which the pIC50 in assay [1] (read-out: TBK1 IC50) was 8.70. Also, in assay [2] (setting [4]), the remaining activity at 10 µM came out at 4%. Also, in assay [2], the “residual kinase activity VEG-FR” value was determined as 4%. The “residual kinase activity IRR” value in assay [3] (10 μM compound) worked out at 15%; in assay [3] (1 μm compound), 32%.
Consider `O=C(NCCCNc1nc(Nc2cccc(F)c2)ncc1C1CC1)C1CCC1` [Example 23, Cyclobutanecarboxylic acid {3-[5-cyclopropyl-2-(3-fluoro-phenylamino)-pyrimidin-4-ylamino]-propyl}-amide], for which the pIC50 in assay [1] (setting [5]) is greater than 7.00; in assay [1] (setting [6]), 8.40; in assay [1] (Table 5, 50 μM ATP, read-out: TBK1 IC50), 8.40; in assay [1] (read-out: TBK1 IC50) it was 8.40. Besides, the “fold more active against TBK1 than Compound B or Compound C” value in assay [1] (from TBK1 IC50 values of Table 5) is listed as greater than 250 fold. The remaining activity at 10 µM in assay [2] (setting [4]) and in assay [2] (setting [7]) was 27% in each case. Also, the “residual kinase activity VEG-FR” value in assay [2] stood at 81%. The remaining activity at 1 µM in assay [2] (setting [7]) worked out at 81%. Also, the “residual kinase activity IRR” value in assay [3] (10 μM compound) was found to be 17%; in assay [3] (1 μm compound), 44%. Besides, the residual kinase activity in assay [3] (1 μM compound) was found to be 44%; in assay [3] (10 μM compound) it was 17%.
In the case of `O=C(NCCCNc1nc(Nc2cccc(N3CCCC3=O)c2)ncc1C1CC1)c1cccs1` [Example 47, Thiophene-2-carboxylic acid (3-{5-cyclopropyl-2-[3-(2-oxo-pyrrolidin-1-yl)-phenylamino]-pyrimidin-4-ylamino}-propyl)-amide. Hydrochloride salt], in assay [2] (setting [7]), the remaining activity at 1 µM is 12% and the remaining activity at 10 µM came out at 34%. The same compound showed a residual kinase activity in assay [3] (1 μM compound) of 64%. Moreover, in assay [3] (10 μM compound), the residual kinase activity is 25%.
`O=C(NCCCNc1nc(Nc2cccnc2)ncc1C1CC1)c1cccs1` [Example 50, Thiophene-2-carboxylic acid {3-[5-cyclopropyl-2-(pyridin-3-ylamino)-pyrimidin-4-ylamino]-propyl}-amide]: the pIC50 is 6.00 to 7.00 in assay [1] (setting [5]) and 6.97 in assay [1] (setting [6]). Also, in assay [2] (setting [7]), the remaining activity at 1 µM is 78%. The remaining activity at 10 µM in assay [2] (setting [7]) was 20%. For the same compound, the residual kinase activity in assay [3] (1 μM compound) is on record as 39%; in assay [3] (10 μM compound), 17%.

For the origin of these results see patent US20100056524A1, “Compound” (priority 2008, published 2010).
